35 compounds from BindingDB's records for doi:10.7270/Q2JM286J (Burnham Center For Chemical Genomics, 2012) can be followed below.

The target of the assay is Prothrombin (Bos taurus, UniProt P00735). Kind of assay: thrombin inhibition, dose response, biochemical, fluorescence polarization, uHTS hits (AID 602369).

Some results are limits rather than exact numbers.

Usually IC50 stands for the concentration that inhibits the measured activity by half. With `O=C1N=C(Nc2ccc(Cl)cc2Cl)SC1=Cc1c[nH]c2ccccc12`, 38.3 µM corresponded to half-maximal inhibition (IC50). This counts as double-digit micromolar. As for `COC1=CC([N+](=O)[O-])=CC(/C=N/NC(=O)c2cc(-c3ccccc3)nc3ccccc23)C1=O` (stereo not given), the figure is 75.1 µM. In turn, `COC1=CC(=Cc2c(C)[nH]n(-c3cccc(Br)c3)c2=O)C=C(OC)C1=O` came in with a half-maximal inhibitory concentration (IC50) of 39 µM. As for `CN(CCO)c1ccc(CN=Nc2ccc([N+](=O)[O-])cc2S(=O)(=O)Nc2ccccc2C(=O)O)cc1`, the figure is 36.4 µM; as for `O=c1c(Cl)c(N=NCc2ccc(Br)cc2)cnn1-c1ccccc1`, more than 100 µM. Compound `CCOC(=O)C1C(=O)C(=Cc2ccc(-c3ccccc3C(=O)O)o2)SC1=Nc1ccc(OC)cc1` (stereo not given) displayed a concentration for half-maximal inhibition (IC50) of 13.1 µM. In other words, the double-digit micromolar range. On to `CC[n+]1c(CC=Nc2ccccc2)oc2ccc(OC)cc21`, for which the IC50 turned out to be 55.6 µM. This IC50 lies about 4.2-fold higher than the previous one. Compound `O=C1C=CC([N+](=O)[O-])=CC1C=NN=C1NS(=O)(=O)c2ccccc21` (stereo not given) displayed an IC50 of 36.8 µM.

Compound `CCN(CC)CCOC(=O)c1ccc(N=CC(C#N)c2nc(-c3ccc4c(c3)OCO4)cs2)cc1` (stereo not given) [2-(diethylamino)ethyl 4-[[(Z)-2-[4-(1,3-benzodioxol-5-yl)-1,3-thiazol-2-yl]-2-cyano-ethenyl]amino]benzoate] displayed a 50% inhibitory concentration (IC50) of 56.1 µM. The compound `Oc1csc(=S)n1N=Cc1ccc(Cl)s1` [3-[(5-chlorothiophen-2-yl)methylideneamino]-2-sulfanylidene-1,3-thiazolidin-4-one] showed an IC50 of 27.1 µM. `CC(=O)C1C(=O)OC(=CC=Cc2ccccc2)C1=O` (stereo not given) [3-acetyl-5-cinnamylidene-4-hydroxy-2-furanone] returned a 50% inhibitory concentration (IC50) of 50.4 µM. Compound `C=c1[nH]n(-c2nnc(C)c(=O)[nH]2)c(=O)c1=Cc1ccc(N(CC)CC)cc1` [3-{4-[1-(4-Diethylamino-phenyl)-meth-(Z)-ylidene]-3-methyl-5-oxo-4,5-dihydro-pyrazol-1-yl}-6-methyl-4H -[1,2,4]triazin-5-one] gave an IC50 of 49.9 µM. The result for `NS(=O)(=O)c1ccc(N=CCC(=O)c2ccc3ccccc3c2)cc1` [4-(3-Naphthalen-2-yl-3-oxo-propenylamino)-benzenesulfonamide] reads 56.5 µM; that for `CSc1nsc(CC=Nc2ccc(C(=O)O)cc2)c1C#N` [4-({2-[4-cyano-3-(methylsulfanyl)-5-isothiazolyl]vinyl}amino)benzenecarboxylic acid], 27.6 µM. `CC1(C)CC(=O)C(=CNCC2CCN(C(=O)Cc3ccccc3)CC2)C(=O)C1` [5,5-dimethyl-2-[[[1-(2-phenylacetyl)piperidin-4-yl]methylamino]methylidene]cyclohexane-1,3-dione] displayed a concentration for half-maximal inhibition (IC50) of more than 100 µM. On to `CC(c1sc(S)nc1O)c1sc(S)nc1O` [5-[1-(4-oxidanylidene-2-sulfanylidene-1,3-thiazolidin-5-yl)ethyl]-2-sulfanylidene-1,3-thiazolidin-4-one], for which the midpoint of inhibition, the IC50, lay at 52.4 µM.

Turning to `CC1=NC(=O)NC(c2ccc(N3CCOCC3)cc2)C1C(=O)c1ccccc1` (stereo not given) [5-benzoyl-6-methyl-4-[4-(4-morpholinyl)phenyl]-3,4-dihydro-1H-pyrimidin-2-one], the half-inhibitory concentration (IC50) amounted to 15.5 µM.

On to `COC1=CC([N+](=O)[O-])=CC(/C=N/NC(=O)c2cncc(Br)c2)C1=O` (stereo not given) [5-bromo-N'-[(E)-(5-methoxy-3-nitro-6-oxo-1-cyclohexa-2,4-dienylidene)methyl]-3-pyridinecarbohydrazide], for which the half-maximal inhibitory concentration (IC50) is 39.1 µM.

Regarding `Cc1[nH]n(-c2ccccc2)c(=O)c1C=C1NC(=S)NC1=O` [5-methyl-4-[(Z)-(5-oxo-2-sulfanylideneimidazolidin-4-ylidene)methyl]-2-phenyl-4H-pyrazol-3-one], the 50% inhibitory concentration (IC50) was 52.8 µM. Regarding `O=C1c2ccccc2SC1/C=N/c1cc([N+](=O)[O-])ccc1O` (stereo not given) [(2Z)-2-[[(5-nitro-2-oxidanyl-phenyl)amino]methylidene]-1-benzothiophen-3-one], 2.57 µM corresponded to half-maximal inhibition (IC50). Consider `Cc1[nH]c2ccccc2c1/C=C1\N=C(c2ccccc2)OC1=O` [(4Z)-4-[(2-methyl-1H-indol-3-yl)methylidene]-2-phenyl-5-oxazolone], for which the concentration for half-maximal inhibition (IC50) is 7.22 µM. Compound `C=CCN1C(=O)C(/C=N/c2cccc([N+](=O)[O-])c2)C(=O)N(CCCC)C1=O` (stereo not given) [MLS000543529] had a concentration for half-maximal inhibition (IC50) of 42.7 µM.

Take `O=[N+]([O-])c1ccc(N=NCc2c[nH]c3ccccc23)cc1` [MLS000573812]: 2.05 µM corresponded to half-maximal inhibition (IC50). As for `O=[N+]([O-])c1ccc(N=NCc2ccc[nH]2)cc1` [MLS000595102], the concentration for half-maximal inhibition (IC50) amounted to 9.84 µM. This IC50 is about 4.8-fold higher than that of the compound before.

Consider `COc1cc2c3c(c1)C(C)=CC(C)(C)N3C(=O)C2=O` [MLS000688351], for which the midpoint of inhibition, the IC50, lay at 11.4 µM. The IC50 values of the last two compounds are within 1.5-fold of each other. The result for `C=C(C=C(C)c1sc(S)nc1O)c1sc(S)nc1O` [MLS000723803] reads 87.5 µM. The compound `C=c1[nH]c2ccc(C)cc2c1=Cc1c(N)n2oc(C)cc2nc1=O` [MLS000730959] registered an IC50 of 32.1 µM. Take `O=C(N/N=C/C1C=C([N+](=O)[O-])C=CC1=O)c1cc(-c2ccccc2)nc2ccccc12` (stereo not given) [N'-[(E)-(3-nitro-6-oxo-1-cyclohexa-2,4-dienylidene)methyl]-2-phenyl-4-quinolinecarbohydrazide]: inhibition was half-maximal at 10.7 µM (IC50). As for `COc1cc(C=c2[nH]c3n(c2=O)CCCCC=3)ccc1O` [SMR000149996], the figure is 29.7 µM. Take `O=[N+]([O-])c1ccc(N=NCc2cccn2-c2ccccc2)nc1` [SMR000161089]: it took 29.5 µM to reach half-maximal inhibition (IC50). Consider `COc1cc(C=CC(=O)C2C(=O)NC(=O)N(CCc3ccccc3)C2=O)ccc1O` (stereo not given) [SMR000221203], for which inhibition was half-maximal at 40.6 µM (IC50). As to `Cc1cc(=O)[nH]c(N=NCc2c(O)n(-c3ccccc3)c(=O)c3ccccc23)n1` [SMR000221270], half-maximal inhibition (IC50) was put at 37.2 µM.

The compound `O=C(N/N=C/C1C=C(Cl)C=C([N+](=O)[O-])C1=O)c1ccccc1NS(=O)(=O)c1cccs1` (stereo not given) [SMR000364876] had a 50% inhibitory concentration (IC50) of 85.5 µM.

The compound `CCN(CC)CCOC(=O)c1ccc(N=CC(C#N)c2nc(-c3ccc(OC)c(OC)c3)cs2)cc1` (stereo not given) [SMR000434079] displayed an IC50 of 28.7 µM. Compared with the last compound, the IC50 is about 3-fold lower. In turn, `CCCCCCCCCCCC1N=C(N)N=C(CCCO)C1C(=O)OC` (stereo not given) [SMR001565729] showed a 50% inhibitory concentration (IC50) of 42.3 µM.
